The record followed here is ChEMBL document CHEMBL4002587 (Eur J Med Chem, 2017).

For one series, the species on record is Rattus norvegicus. The series can be described thus: Anti-thrombotic activity in Sprague-Dawley rat assessed as inhibition of arteriovenous thrombosis weight at 0.5 mg/ml relative to control. It counts as functional.
Details: not given
With `Cc1cccc(N(CCC(=O)O)C(=O)c2ccc3c(c2)nc(CNc2ccc(C(=N)N)cc2F)n3C)c1C`, the “inhibition (INH)” value is on record as 84.24%.
On the same count and under the same terms, the value for `Cc1cccc(N(CCC(=O)O)C(=O)c2ccc3c(c2)nc(CNc2ccc(C(=N)N)cc2F)n3C)n1` was 84.57%; that for `Cn1c(CNc2ccc(C(=N)N)cc2)nc2cc(C(=O)N(CCC(=O)O)c3ccccn3)ccc21` [DABIGATRAN] was 85.07%.

Tested on in another series: not listed separately
Put plainly: Oral bioavailability in human at 10 to 400 mg administered as single dose measured after 24 hrs. The class given is ADME, organism-based. To be noted: in vivo.
`Cn1c(CNc2ccc(C(=N)N)cc2)nc2cc(C(=O)N(CCC(=O)O)c3ccccn3)ccc21` [DABIGATRAN] yielded a bioavailability of 6.5%.

The target in the next series is Prothrombin (Homo sapiens, UniProt P00734). Put plainly: Inhibition of human thrombin preincubated for 10 mins followed by Ac-FVR-AMC substrate addition measured every 20s for 10 mins by fluorescence assay.
Details: not given
Compound `Cc1cccc(N(CCC(=O)O)C(=O)c2ccc3c(c2)nc(CNc2ccc(C(=N)N)cc2F)n3C)c1C` displayed an IC50 of 1.54 nM.
Compound `Cc1cccc(C)c1N(CCC(=O)O)C(=O)c1ccc2c(c1)nc(CNc1ccc(C(=N)N)cc1F)n2C` returned a concentration for half-maximal inhibition (IC50) of 12.8 nM.
On the same count and under the same terms, then `Cn1c(CNc2ccc(C(=N)N)cc2F)nc2cc(C(=O)N(CCC(=O)O)c3ccc(F)c(F)c3)ccc21`, with 14.6 nM.
`Cc1cccc(N(CCC(=O)O)C(=O)c2ccc3c(c2)nc(CNc2ccc(C(=N)N)cc2F)n3C)n1` showed an IC50 of 1.42 nM.
The same measure, in the same setting: then `Cn1c(CNc2ccc(C(=N)N)cc2F)nc2cc(C(=O)N(CCC(=O)O)c3cc(F)cc(F)c3)ccc21`, with 1.18 nM; and `Cc1ccc(C)c(N(CCC(=O)O)C(=O)c2ccc3c(c2)nc(CNc2ccc(C(=N)N)cc2F)n3C)c1`, with 3.35 nM; and `Cc1cc(N(CCC(=O)O)C(=O)c2ccc3c(c2)nc(CNc2ccc(C(=N)N)cc2F)n3C)ccc1F`, with 3.2 nM.
As to `Cc1cc(C)cc(N(CCC(=O)O)C(=O)c2ccc3c(c2)nc(CNc2ccc(C(=N)N)cc2F)n3C)c1`, the half-maximal inhibitory concentration (IC50) was 3.7 nM.
On the same count and under the same terms, then `Cc1ccnc(N(CCC(=O)O)C(=O)c2ccc3c(c2)nc(CNc2ccc(C(=N)N)cc2F)n3C)c1`, with 3.33 nM; and `Cn1c(CNc2ccc(C(=N)N)cc2F)nc2cc(C(=O)N(CCC(=O)O)c3ccc(F)cc3F)ccc21`, with 0.84 nM.
The same measure, in the same setting: then `Cc1cccc(N(CCC(=O)O)C(=O)c2ccc3c(c2)nc(CNc2ccc(C(=N)N)cc2F)n3C)c1`, with 2.26 nM.

The bioavailability is dose-corrected exposure relative to a reference, in per cent. Read a high bioavailability as good availability. The term IC50 denotes the concentration needed to halve the response being measured.
